These results are taken from ChEMBL document CHEMBL2073898, “Overexpression of the BCRP/MXR/ABCP gene in a topotecan-selected ovarian tumor cell line” (Cancer Res, 1999).

Series [1] deals with T1, Broad substrate specificity ATP-binding cassette transporter ABCG2 (Homo sapiens, UniProt Q9UNQ0).
T1 sequence (Q9UNQ0 whole entry): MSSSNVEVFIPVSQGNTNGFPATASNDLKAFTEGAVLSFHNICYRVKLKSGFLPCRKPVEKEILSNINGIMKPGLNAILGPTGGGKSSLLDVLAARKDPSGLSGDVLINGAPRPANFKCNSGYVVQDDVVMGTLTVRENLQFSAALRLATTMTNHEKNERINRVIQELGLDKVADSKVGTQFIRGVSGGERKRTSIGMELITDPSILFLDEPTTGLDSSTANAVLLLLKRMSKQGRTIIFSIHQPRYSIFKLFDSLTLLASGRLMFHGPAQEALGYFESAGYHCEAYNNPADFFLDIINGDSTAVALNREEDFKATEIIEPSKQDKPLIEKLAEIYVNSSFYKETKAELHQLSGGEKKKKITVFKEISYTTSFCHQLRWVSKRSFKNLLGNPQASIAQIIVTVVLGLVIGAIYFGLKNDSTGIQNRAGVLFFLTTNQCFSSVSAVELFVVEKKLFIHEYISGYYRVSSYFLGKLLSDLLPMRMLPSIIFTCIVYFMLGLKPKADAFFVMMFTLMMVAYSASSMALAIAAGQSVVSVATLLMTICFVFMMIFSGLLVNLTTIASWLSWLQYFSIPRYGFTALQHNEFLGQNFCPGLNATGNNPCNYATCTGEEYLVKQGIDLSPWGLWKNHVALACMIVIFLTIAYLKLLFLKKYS
Description: TP_TRANSPORTER: intracellular concentration of the drug is lower compared with IGROV1 in MX3 cells. The series is classed as functional, cell-based.

The target in series [2] is T1, Broad substrate specificity ATP-binding cassette transporter ABCG2. As to the kind of experiment: TP_TRANSPORTER: intracellular concentration of the drug is lower compared with IGROV1 in T8 cells. The series is classed as functional, cell-based.

On to `CC[C@@]1(O)C(=O)OCc2c1cc1n(c2=O)Cc2cc3c(CN(C)C)c(O)ccc3nc2-1` [TOPOTECAN], for which the Activity entry in series [1] and in series [2] was “substrate [+]” in each case.
